Two compounds from paper PMC10350920, “Development of a 2,4-Diaminothiazole Series for the Treatment of Human African Trypanosomiasis Highlights the Importance of Static–Cidal Screening of Analogues” (Journal of Medicinal Chemistry, 2023) can be followed below.

The conditions of data set [1]: mouse, in vivo, ip.
The nature of data set [2]: Equilibrium dialysis, free fraction in plasma. In kind it is in vitro ADME, mouse. The settings on record: matrix not given. On the procedure: In brief, a 96-well equilibrium dialysis apparatus was used to determine the free fraction in plasma and the brain (HT Dialysis LLC, Gales Ferry, CT). Isotonic buffer was prepared using 8.69 g of Na2HPO4, 1.9 g of KH2PO4, and 4.11 g of NaCl dissolved in 1 L of Milli-Q water, and the pH was adjusted to 7.4. Artificial CSF was prepared using 3.652 g of NaCl, 93.2 mg of KCl, 119.96 mg of MgCl2, 92.61 mg of CaCl2, and 268 mg of Na2HPO4 heptahydrate dissolved in 0.5 L of water, and the pH was adjusted to 7.4. Membranes [12–14 (plasma) or 6–9 (brain) kDA cutoff] were conditioned in deionized water for 60 min, followed by conditioning in 80:20 deionized water/ethanol for 20 min, and then rinsed in isotonic buffer (plasma) or […] (brain) before use. Female CD1 mouse plasma was defrosted and centrifuged for 10 min at 3000 rpm (Allegra X12-R, Beckman Coulter, USA). The control mouse brain was homogenized in two volumes of artificial CSF in a Covaris S2 acoustic homogenizer. Plasma or brain homogenate was spiked with the test compound (10 μg mL^–1), and 150 μL aliquots (n = 3 replicate determinations) were loaded into the 96-well equilibrium dialysis plate. Dialysis versus 150 μL of isotonic buffer (plasma) or artificial CSF (brain) was carried out for 5 h in a temperature-controlled incubator at 37 °C (Barworld Scientific Ltd, UK) using an orbital microplate shaker at 125 rpm (Barworld Scientific Ltd, UK). At the end of the incubation period, aliquots of plasma/homogenized brain or buffer were transferred to a clean 96-well plate, and the composition in each well was balanced with control fluid, such that the volume of buffer to the matrix was the same. Sample extraction was performed by the addition of 400 μL of acetonitrile containing an appropriate internal standard. Samples were allowed to mix for 1 min and then centrifuged at 3000 rpm in 96-well blocks for 10 min (Allegra X12-R, Beckman Coulter, USA). All samples were analyzed by means of UPLC/MS/MS on a Quattro Premier XE or Micro TQs mass spectrometer (Waters Corporation, USA). The unbound fraction was determined as the ratio of the peak area in the buffer to that in the matrix.
In general terms: Equilibrium dialysis compares concentrations on both sides of a semipermeable membrane.

For data set [3], the system named is T. brucei RES II. Put plainly: Drug sensitivity, compound 38-resistant clone RES II. In kind it is cell-based, T. b. brucei. On the procedure: (§1) Drug sensitivity assays were carried out with BSF T. b. brucei “single marker” S427 or BSF T. b. brucei, Lister 427, MiTat 1.2, clone 221a 2T1 cells,[45] cells grown at 37 °C with 5% CO2 in an HMI-9T medium[46] as previously described.[47] 2T1 cells were initially maintained with 1 μg mL^–1 puromycin and 1 μg mL^–1 phleomycin prior to transfection or 2.5 μg mL^–1 hygromycin and 1 μg mL^–1 phleomycin after transfection. Induction of overexpression was achieved by the addition of 1 μg mL^–1 tetracycline to the culture medium.
(§2) Compound-resistant cell lines were generated by subculturing a clone of T. brucei in the continuous presence of 38. Starting at sublethal concentrations, drug concentrations in two independent cultures were increased in a stepwise manner, usually 2-fold. When parasites were able to survive and grow in concentrations of drugs equivalent to more than 10 times the established EC50 value, the resulting cell lines were cloned by limiting dilution in the presence of the compound. Two clones (RES I-II) were selected for further biological study. A standard alkaline lysis protocol was used to isolate genomic DNA from compound-resistant bloodstream T. brucei parasites (∼1 × 10^8). Whole genome sequencing was performed using a DNB-seq next-generation sequencing platform (BGI, Hong Kong). Sequencing reads (150 bp) were aligned to the T. brucei TREU927 genome (v39; tritrypDB) using Bowtie2[48] and Samtools[49] software. […] Samtools and BCFtools[52] (mpileup) were used to call SNP and indels compared with the wild-type starter clone, where the overall quality score (QUAL) was >100. Artemis[50] was used to analyze chromosome and gene copy number variation, as well as visualization of SNPs.

The test system of data set [4] is Tb927.8.6290 overexpressing cell lines (V241F/A258V). Put plainly: Drug sensitivity, line overexpressing Tb927.8.6290 V241F/A258V. In kind it is cell-based, T. b. brucei. The note with it: for EC50: Trypanosoma brucei. On the procedure:
as §1
(§3) The following primers were used to PCR amplify Tb927.8.6290 from genomic DNA isolated from wild-type and 38-resistant trypanosomes 5′-[…]-3′ (PacI site in bold) and 5′-[…]-3′ (BamHI site in bold). The PCR products (1272 bp) were then cloned into the pRPa plasmid.[53] The accuracy of the plasmid constructs was confirmed by in-house Sanger sequencing and then linearized with AscI prior to transfection. The linearized plasmids were introduced into 2T1 T. b. brucei cells following removal of puromycin from the media and selected with 2.5 μg mL^–1 hygromycin and 1 μg mL^–1 phleomycin. Two independent clones were selected for further studies.

Data set [5] is described as follows: Mammalian cell counter screen (MRC-5). In kind it is cell-based, human. The settings on record: human, MRC-5 fibroblasts; mean values; number of replicates in parentheses. On the procedure: Drug sensitivity assays with BSF T. b. brucei “single marker” S427 and human MRC-5 fibroblasts were conducted as previously described.[43]
On the technique in general: The purpose of a counterscreen is to sort out artefacts and off-target activity.

Data set [6] deals with T. b. brucei S427. As to the kind of experiment: Stage 1 efficacy study in rats. In kind it is in vivo, male SD rats. The settings on record: infected rats, single dose, 100 mg kg^–1 PO. On the procedure:
Stage 1 efficacy experiments using T. b. brucei S427 were performed as described,[44] with minor modifications. In brief, male SD rats (38) or female HRN (16) and NMRI (16, 38) mice (3–5 per group) were injected intraperitoneally with 1 × 10^4 BSFs of T. brucei. These BSFs come from a stock of cryopreserved stabilates containing 10% glycerol. The stabilate was suspended in 20 mM Hanks’ balanced salt solution with glucose to obtain a trypanosome concentration of 5 × 10^4 cells mL^–1. Each mouse was injected with 0.2 mL. […] Dose concentrations were 1.25, 2.5, 5, 7.5, 10, 30, and 50 mg kg^–1 free base (16) or 100 mg kg^–1 free base (38). The doses were prepared fresh daily, using 5% DMSO/40% PEG400/55% Milli-Q (16) or 15% solutol/85% Milli-Q (38), and the dose volume was 10 mL kg^–1. One group of three mice was an untreated control group.

The test system of data set [7] is T. brucei wild-type. As to the kind of experiment: Drug sensitivity, wild-type parental line. It counts as cell-based, T. b. brucei. The settings on record: Trypanosoma brucei; weighted mean of ≥3 independent experiments. On the procedure: as §1, §2
The test system of data set [8] is Tb927.8.6290 overexpressing cell lines (WT). Put plainly: Drug sensitivity, line overexpressing Tb927.8.6290 WT. In kind it is cell-based, T. b. brucei. The note with it: for EC50: Trypanosoma brucei. The protocol: as §1, §3

Like-named read-outs stand apart in the source and are kept apart here.

With “(4-Amino-2-(cyclohexylamino)thiazol-5-yl)(2,6-difluorophenyl)methanone [Compound 16]”, the “exposure in HRN mice relative to NMRI mice” value in data set [1] is given as 15 fold. For the same compound, in data set [2], the “Fu (free fraction)” value is 0.03.

With `CC(C)(O)CC(=O)c1sc(Nc2ccc(F)c(F)c2)nc1N` [Compound 38, 1-(4-Amino-2-((3,4-difluorophenyl)amino)thiazol-5-yl)-3-hydroxy-3-methylbutan-1-one], the EC50 in data set [3] (Trypanosoma brucei, read-out: EC50, RES II) came out at 8.2 ± 0.49 µM; in data set [4] (read-out: EC50, V241F/A258V +TET), 12 ± 0.69 µM; in data set [4] (read-out: EC50, V241F/A258V –TET) it was 0.27 ± 0.018 µM; in data set [5], 46 µM; in data set [7], 0.31 ± 0.004 µM; in data set [8] (read-out: EC50, WT +TET) it was 10 ± 0.25 µM. Besides, the EC50 in data set [8] (read-out: EC50, WT –TET) was found to be 0.4 ± 0.025 µM. Also, in data set [3] (relative to the parental wild-type, in brackets), the “fold resistance, RES II” value is 26. In addition, in data set [4] (−TET vs +TET EC50, in brackets), the “fold shift, V241F/A258V” value was 45. Further, the “stage 1 efficacy, parasitemia” value in data set [6] is “no reduction in parasitemia”. Moreover, the “fold shift, WT” value in data set [8] (−TET vs +TET EC50, in brackets) came to 26.
